Tests used:
[1] = target: T1, Angiotensin II receptor (Rattus norvegicus) (UniProt P29089+P25095+P35351); test: In vivo inhibition of pressor response induced by Angiotensin II (AII) following intravenous administration to pithed rats; assay type: functional, organism-based
[2] = target: T2, Angiotensin II receptor (AT-1) type-1 (Rattus norvegicus, UniProt P29089+P25095); test: In vitro displacement of [125I]angiotensin II from rat liver (Angiotensin 1 receptor) membrane preparation
T2 sequence (P29089 whole entry): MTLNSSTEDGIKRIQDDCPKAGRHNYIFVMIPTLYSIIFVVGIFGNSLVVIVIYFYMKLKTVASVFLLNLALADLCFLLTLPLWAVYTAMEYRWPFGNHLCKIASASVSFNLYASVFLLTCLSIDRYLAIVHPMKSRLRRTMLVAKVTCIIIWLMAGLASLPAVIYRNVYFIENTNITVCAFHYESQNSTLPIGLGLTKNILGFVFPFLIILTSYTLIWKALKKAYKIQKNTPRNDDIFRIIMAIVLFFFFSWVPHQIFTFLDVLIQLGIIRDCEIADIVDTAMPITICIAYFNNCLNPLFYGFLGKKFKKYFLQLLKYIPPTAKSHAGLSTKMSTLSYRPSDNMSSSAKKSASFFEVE
T2 sequence (P25095 whole entry): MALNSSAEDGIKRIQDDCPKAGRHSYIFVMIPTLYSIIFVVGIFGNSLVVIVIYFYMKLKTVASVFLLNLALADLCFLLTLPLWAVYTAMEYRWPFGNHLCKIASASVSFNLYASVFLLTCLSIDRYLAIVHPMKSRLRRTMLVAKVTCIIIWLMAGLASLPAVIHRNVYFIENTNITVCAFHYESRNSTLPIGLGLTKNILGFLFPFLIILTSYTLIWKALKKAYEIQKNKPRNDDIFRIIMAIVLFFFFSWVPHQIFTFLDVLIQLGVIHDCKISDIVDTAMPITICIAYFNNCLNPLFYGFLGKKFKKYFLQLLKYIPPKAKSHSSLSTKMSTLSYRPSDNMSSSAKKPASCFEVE

[3] = target: T1, Angiotensin II receptor (Rattus norvegicus); test: In vivo inhibition of pressor response induced by Angiotensin II (AII) following oral administration to pithed rats; assay type: functional, organism-based

T1 sequence (P35351 whole entry, looked up, one chain of several): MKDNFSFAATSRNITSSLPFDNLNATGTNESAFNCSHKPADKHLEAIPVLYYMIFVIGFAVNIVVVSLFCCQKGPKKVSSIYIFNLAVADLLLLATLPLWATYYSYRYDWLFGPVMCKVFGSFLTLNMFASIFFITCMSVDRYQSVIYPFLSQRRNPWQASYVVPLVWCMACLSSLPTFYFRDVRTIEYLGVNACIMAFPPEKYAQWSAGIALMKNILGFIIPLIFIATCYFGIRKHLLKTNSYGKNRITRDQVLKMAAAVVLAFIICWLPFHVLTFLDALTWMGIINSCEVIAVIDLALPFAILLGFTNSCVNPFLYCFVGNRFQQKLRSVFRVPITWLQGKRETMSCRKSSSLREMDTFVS

Structure (SMILES) | ID50 [1] [mg/kg] | IC50 [2] [nM] | ID50 [3] [mg/kg]
CCCc1nc(SC(F)F)c(C(=O)O)n1Cc1ccc(-c2ccccc2S(=O)(=O)NC(=O)CCc2cccs2)cc1 | 0.33 | 0.03 | 3.1
CCCCc1nc(SC)c(C(=O)O)n1Cc1ccc(-c2ccccc2S(=O)(=O)NC(=O)N(c2ccccc2)c2ccccc2)cc1 | 5.8 | 1.2 | 
CCCc1nc(SC(F)F)c(C(=O)O)n1Cc1ccc(-c2ccccc2S(=O)(=O)NC(=O)Cc2cccs2)cc1 | 0.13 | 0.07 | 3
CCCc1nc(SC(F)F)c(C(=O)O)n1Cc1ccc(-c2ccccc2S(=O)(=O)NC(=O)C(C)c2ccccc2)cc1 (configuration not stated) |  | 0.3 | 
CCCc1nc(SC(F)F)c(C(=O)O)n1Cc1ccc(-c2ccccc2S(=O)(=O)NC(=O)CCCc2ccccc2)cc1 | 0.52 | 0.7 | 
CCCCc1nc(SC)c(C(=O)O)n1Cc1ccc(-c2ccccc2S(=O)(=O)NC(=O)NC(c2ccccc2)c2ccccc2)cc1 |  | 0.4 | 
CCCc1nc(SC)c(C(=O)O)n1Cc1ccc(-c2ccccc2S(=O)(=O)NC(=O)Nc2ccc(C)cc2)cc1 | 0.87 | 1 | 
CCc1nc(SC)c(C(=O)O)n1Cc1ccc(-c2ccccc2S(=O)(=O)NC(=O)NCc2ccccc2)cc1 | 1.37 | 0.1 | 
CCCc1nc(SC(F)F)c(C(=O)O)n1Cc1ccc(-c2ccccc2S(=O)(=O)NC(=O)Cc2ccc(F)cc2)cc1 | 0.43 | 0.1 | 
CCCc1nc(SC(F)F)c(C(=O)O)n1Cc1ccc(-c2ccccc2S(=O)(=O)NC(=O)Cc2ccc3ccccc3c2)cc1 |  | 0.1 | 
CCCCc1nc(SC(F)F)c(C(=O)O)n1Cc1ccc(-c2ccccc2S(=O)(=O)NC(=O)Cc2ccccc2)cc1 | 0.36 | 0.15 | 2.2
CCCc1nc(SC(F)F)c(C(=O)O)n1Cc1ccc(-c2ccccc2S(=O)(=O)NC(=O)Cc2ccccc2Cl)cc1 | 0.8 | 0.3 | 
CCCc1nc(SC(F)F)c(C(=O)O)n1Cc1ccc(-c2ccccc2S(=O)(=O)NC(=O)Cc2ccc3c(c2)OCO3)cc1 | 0.35 | 0.3 | 10
CCCc1nc(SC(F)F)c(C(=O)O)n1Cc1ccc(-c2ccccc2S(=O)(=O)NC(=O)CCc2ccccc2)cc1 | 0.64 | 0.1 | 
CCCc1nc(SC(F)F)c(C(=O)O)n1Cc1ccc(-c2ccccc2S(=O)(=O)NC(=O)Cc2ccccc2)cc1 | 0.26 | 0.2 | 2

The next lines start with the values.

ID50 [1] [mg/kg] | IC50 [2] [nM] | ID50 [3] [mg/kg] | Structure (SMILES)
0.35 | 0.1 |  | CCCCc1nc(SC)c(C(=O)O)n1Cc1ccc(-c2ccccc2S(=O)(=O)NC(=O)NCC2CCCCC2)cc1
0.6 | 0.2 | 1.7 | CCCCc1nc(SC(F)F)c(C(=O)O)n1Cc1ccc(-c2ccccc2S(=O)(=O)NC(=O)CC2CCCCC2)cc1
1.84 | 1.3 | > 10 | CCc1nc(SC)c(C(=O)O)n1Cc1ccc(-c2ccccc2S(=O)(=O)NC(=O)NCC2CCCCC2)cc1
 | 0.1 | 1 | CCCc1nc(SC)c(C(=O)O)n1Cc1ccc(-c2ccccc2S(=O)(=O)NC(=O)NCc2cccs2)cc1
0.3 | 0.1 | 1.5 | CCCc1nc(SC)c(C(=O)O)n1Cc1ccc(-c2ccccc2S(=O)(=O)NC(=O)NCC2CCCCC2)cc1
0.52 | 2.3 |  | CCCc1nc(SC)c(C(=O)O)n1Cc1ccc(-c2ccccc2S(=O)(=O)NC(=O)Nc2ccccc2)cc1
0.11 | 0.5 | 0.7 | CCCCc1nc(SC)c(C(=O)O)n1Cc1ccc(-c2ccccc2S(=O)(=O)NC(=O)NCCC)cc1
0.09 | 0.5 | 0.8 | CCCCc1nc(SC(F)F)c(C(=O)O)n1Cc1ccc(-c2ccccc2S(=O)(=O)NC(=O)CCC)cc1
0.17 | 0.2 | 1.1 | CCCCc1nc(SC)c(C(=O)O)n1Cc1ccc(-c2ccccc2S(=O)(=O)NC(=O)NCC)cc1
0.22 | 0.07 | 1.1 | CCCc1nc(SC(F)F)c(C(=O)O)n1Cc1ccc(-c2ccccc2S(=O)(=O)NC(=O)CC2CCCCC2)cc1
 | 0.5 |  | CCCc1nc(SC)c(C(=O)O)n1Cc1ccc(-c2ccccc2S(=O)(=O)NC(=O)NC2CCCCC2)cc1
0.27 | 1.9 | 4.9 | CCCCc1nc(SC)c(C(=O)O)n1Cc1ccc(-c2ccccc2S(=O)(=O)NC(=O)NC)cc1
 | 0.1 |  | CCCCc1nc(SC)c(C(=O)O)n1Cc1ccc(-c2ccccc2S(=O)(=O)NC(=O)NCc2ccccc2)cc1
0.09 | 0.2 | 0.2 | CCCCNC(=O)NS(=O)(=O)c1ccccc1-c1ccc(Cn2c(CCCC)nc(SC)c2C(=O)O)cc1
 | 0.1 | 1 | CCCc1nc(SC)c(C(=O)O)n1Cc1ccc(-c2ccccc2S(=O)(=O)NC(=O)NCC2CCCC2)cc1
0.22 | 0.2 | 1.4 | CCCc1nc(SC)c(C(=O)O)n1Cc1ccc(-c2ccccc2S(=O)(=O)NC(=O)NCc2ccccc2)cc1

— ChEMBL document CHEMBL1128069, “Balanced AT1 and AT2 angiotensin II antagonists. I. New orally active 5-carboxyl imidazolyl biphenyl sulfonylureas” (Bioorg Med Chem Lett, 1995)
